We go through two substances from patent publication US6964766B1, “Peptides for use in immunotherapy of autoimmune diseases” (Akzo Nobel N.V., priority 1998, dated 2005).

In assay [1] the test system is PBMC from RA patients. In words: recognition by PBMC ([3H]thymidine incorporation, stimulation index). In kind it is cell-based, human. Conditions: Table 3b, per donor (169, 455, 447, 327).
Another assay relates to Balb/c mice. The conditions noted are these: single injection in the chest region, μg amounts of protein in IFA; cited from earlier work.
The target in assay [2] is T1, HLA-DRB1*0401-encoded molecules (Homo sapiens, UniProt P01903+P01911, A100K/A169T/F76Y/I96L/K127E/L162R/M171V/N62H/P40V/Q125Y/R42H/S133A/S149N/S66Y/V115G/V209L/W38E).
T1 construct: HLA-DR4 (DRB1*0401) molecules were purified from the homozygous EBV-transformed human B lymphoblastoid cell lines Huly138IC2; endogenous in cells; host or cells: homozygous EBV-transformed human B lymphoblastoid cell line Huly138IC2
In words: competition peptide HLA-DR binding assay.

The test system of assay [3] is HLA-DRB1*0401-restricted hybridomas specific for HC gp-39 (263-275) (8B12, 14G11, 20H5). In words: stimulation of HC gp-39 (263-275)-specific T-cell hybridomas (IL-2 production). It counts as cell-based, mouse. The conditions noted are these: presented by DRB1*0401 EBV-transformed B cells, 48 hr. The procedure:
To test the cross reactivity of the 3 different, HC gp39-specific hybridoma cell lines with the YKL-39 or the chitotriosidase peptide, 5×10^4 hybridoma cells and 2×10^5 irradiated (12000 RAD), EBV-transformed B cells carrying the DRB1*0401 specificity were incubated in 150 μl volumes in wells of a round-bottomed microtiter plate. Peptide antigen (HC gp-39 (263-275), YKL-39 (266-278), chitotriosidase (269-282) or a control peptide) was added in 50 μl volumes to duplicate wells. Forty-eight hr later 100 μl of the culture supernatant was assayed for IL-2 production using a sandwich ELISA with Pharmingen antibodies specific for mouse IL-2.

In assay [4] the test system is PBMC from RA patients. In words: recognition by PBMC ([3H]thymidine incorporation, stimulation index). It counts as cell-based, human. The procedure: Peripheral blood mononuclear cells (PBMC) were isolated from heparinized peripheral blood by standard centrifugation on Ficoll-Paque (Pharmacia, Uppsala, Sweden). Cells were suspended in wells of a 24 well plate in a concentration of 5×10^5 cells per ml. Cells were incubated in medium alone or in the presence of 10 or 50 μg/ml peptide antigen (YKL-39 (266-278)). Cultures were incubated for 6 days at 37° C. in a humidified atmosphere of 5% CO2. Cells were then suspended and 100 or 150 μl volumes of medium was distributed in 4-fold in wells of a 96-well roundbottomed plate. Cells were then pulsed with 0.5 μCi (1.85×10^4 Bq) [3H]thymidine ([3H]TdR) and 18 hr later incorporated radioactivity was measured. Results as shown in table 3 are expressed as stimulation indices (SI) (antigen-specific counts/background counts).

For assay [5], the system named is HC gp-39 (263-275) induced DTH response. In words: HC gp-39 (263-275)-specific DTH assay, tolerance induction by nasal application. In kind it is in vivo, Balb/c mice. The conditions noted are these: for tolerance: intranasal pretreatment 50, 10 or 2 micrograms, sensibilisation and challenge with HC gp-39 (263-275). An excerpt: FIG. 2a, 2b, 2c In vivo tolerization with HC gp-39 (263-275) or YKL-39 ([…]) • Balb/c mice were tolerized by intranasal application of 50, 10 or 2 micrograms of HC gp-39 (263-275), SEQ ID NO: 3, (FIG. 2b) or YKL-39 (266-278) (FIG. 2c) followed by immunization with HC gp-39 (263-275). Mice that were pretreated with saline or that were left untreated were included as controls (FIG. 2a).
A HC gp-39 (263-275)-specific DTH assay suitable to monitor tolerance induction with peptide antigens was developed. […] This peptide-based DTH system was used to detect modulation of the DTH response by nasal application of HC gp-39 (263-275) peptide.

Where “and” joins values, the source holds several entries; their conditions need not be identical. Equal entries are not always repeated. Entries after “also recorded” stand apart in the source; their conditions may differ. No end group written: not given here.

Consider “HC gp-39: human cartilage glycoprotein-39, a protein of 362 amino acids, target autoantigen in rheumatoid arthritis”, for which the “SI 10 μg/ml” value in the assay with PBMC from RA patients [1] (10 μg/ml antigen) was 1 and 12 and 24 and 45. In addition, the “SI 50 μg/ml” value with PBMC from RA patients [1] (50 μg/ml antigen) was 1 and 19 and 44 and 95. In addition, the arthritogenicity entry with Balb/c mice is recorded as “induced a chronic joint inflammation”.

“HSFTLASAETTVG [YKL-39 (266-278), HSFTLASAETTVG]”: in assay [2], the “binding affinity to DRB1*0401 (in words)” value is reported as “very high affinity”. In assay [3], the “activation of T-cell hybridomas, IL-2 production (in words)” value was “response similar to HC gp-39 (263-275)”. In the assay with PBMC from RA patients [4] (RA patients), the “recognition by PBMC (in words)” value is reported as “readily recognized”. The “SI 10 μg/ml” value in the assay on PBMC from RA patients [4] (Table 3a, per donor (RA patients), 10 μg/ml peptide, 6 days, SI = antigen-specific counts/background counts) was 9 and 15 and <2 (3×) and 4 and 3 (2×) and 19; with PBMC from RA patients [4] (Table 3b, per donor (169, 455, 447, 327), 10 μg/ml antigen), 1 and 6 and 27 and 20. Further, the “SI 50 μg/ml” value in the assay on PBMC from RA patients [4] (Table 3a, per donor (RA patients), 50 μg/ml peptide, 6 days) was 9 and 4 and <2 (4×) and 27 and 25 and 58; in the assay with PBMC from RA patients [4] (Table 3b, per donor (169, 455, 447, 327), 50 μg/ml antigen), 2 and 5 and 32 and 35. For the same substance, the responder / non-responder entry with PBMC from RA patients [4] (per donor, RA patients, SI >= 5 regarded positive) is listed as “R (R = responder); also recorded: NR (NR = non-responder)”. Further, the tolerance result in assay [5] is “yes”; in assay [5] (listed as YKL-39 266-278) it was “effective as a tolerogen”. Besides, in assay [5] (nasal application, Balb/c mice immunised with HC gp-39 (263-275) in IFA), the “downmodulation of the DTH response (in words)” value is reported as “more enhanced downmodulation”.
